In US6967196B1, “Sulfonamide compounds and uses thereof” (Bristol-Myers Squibb Company, priority 1999, dated 2005) one finds IC50 data, which are given here for 18 substances.

A word on the IC50: it is the concentration needed to halve the response being measured.

In one assay the test system is amyloid β production in transfected H4 (human neuroglioma) cells stably expressing APP constructs. The assay can be described thus: In vitro cell-based assay of inhibitors of amyloid β production (ELISA). As to conditions: transfected H4 cells stably expressing APP; approx. 16 h incubation; amyloid β in medium by ELISA; read-out: ACTIVITY (IC50, inhibition of amyloid β production). The procedure, abridged: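 Transfected H4 cells stably expressing wild-type or variant APP were exposed to compounds (initial screen 10-100 μM) for about 16 h. Secreted Aβ in the medium was quantified by sandwich ELISA (C-terminal-specific monoclonal capture, N-terminal-specific polyclonal detection) against an Aβ standard curve; dose-response runs followed for actives.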
Regarding “N-{3-[2-(1-{[(4-chlorophenyl)sulfonyl]-2,5-difluoroanilino}ethyl)phenoxy]propyl}-N-methyl-3-nitrobenzamide [Example 737]”, the IC50 was 100 to 500 nM. On the same count and under the same terms, the value for “N-{3-[2-(1-{[(4-chlorophenyl)sulfonyl]-2,5-difluoroanilino}ethyl)phenoxy]propyl}-N-methyl-4-(trifluoromethoxy)benzamide [Example 770]” was 100 to 500 nM. On the same count and under the same terms, the same measure for “N-{3-[2-(1-{[(4-chlorophenyl)sulfonyl]-2,5-difluoroanilino}ethyl)phenoxy]propyl}-N-methyl-4-(trifluoromethyl)benzamide [Example 703]”: 100 to 500 nM.

For “N-{3-[2-(1-{[(4-chlorophenyl)sulfonyl]-2,5-difluoroanilino}ethyl)phenoxy]propyl}-N-methyl-4-propylbenzamide [Example 656]”, the IC50 was 100 to 500 nM. “N-{3-[2-(1-{[(4-chlorophenyl)sulfonyl]-2,5-difluoroanilino}methyl)phenoxy]propyl}-2-fluoro-N-methylbenzamide [Example 733]”: the half-maximal inhibitory concentration (IC50) was 100 to 500 nM. On the same count and under the same terms, the value for “N-{3-[2-(1-{[(4-chlorophenyl)sulfonyl]-2,5-difluoroanilino}methyl)phenoxy]propyl}-N-methyl-2-phenylcyclopropanecarboxamide [Example 759]” was 100 to 500 nM; that for “N-{3-[2-({[(4-chlorophenyl)sulfonyl]-2,5-difluoroanilino}methyl)phenoxy]propyl}-2,3-difluoro-N-methylbenzamide [Example 665]” was 100 to 500 nM; that for “N-{3-[2-({[(4-chlorophenyl)sulfonyl]-2,5-difluoroanilino}methyl)phenoxy]propyl}-2-iodo-N-methylbenzamide [Example 716]” was 100 to 500 nM.

For “N-{3-[2-({[(4-chlorophenyl)sulfonyl]-2,5-difluoroanilino}methyl)phenoxy]propyl}-2-methoxy-N-methylbenzamide [Example 775]”, the IC50 lay within 100 to 500 nM.

The assay is the same for the next values; noted with them: transfected H4 cells stably expressing APP; approximately 16 hours incubation; amyloid β in medium by ELISA; read-out: ACTIVITY (IC50, inhibition of amyloid β production).
In the case of “N-{3-[2-({[(4-chlorophenyl)sulfonyl]-2,5-difluoroanilino}ethyl)phenoxy]propyl}-3,4,5-trimethoxy-N-methylbenzamide [Example 913]”, the IC50 is over 500 nM. Same read-out and setting: the value for “N-{3-[2-({[(4-chlorophenyl)sulfonyl]-2,5-difluoroanilino}methyl)phenoxy]propyl}-2,3,4-trifluoro-N-methylbenzamide [Example 864]” was 100 to 500 nM; that for “N-{3-[2-({[(4-chlorophenyl)sulfonyl]-2,5-difluoroanilino}methyl)phenoxy]propyl}-2,4,5-trifluoro-N-methylbenzamide [Example 813]” was 100 to 500 nM.

As to “N-{3-[2-({[(4-chlorophenyl)sulfonyl]-2,5-difluoroanilino}methyl)phenoxy]propyl}-2,4-dimethoxy-N-methylbenzamide [Example 834]”, the IC50 lay in the range of 100 to 500 nM.

Turning to “N-{3-[2-({[(4-chlorophenyl)sulfonyl]-2,5-difluoroanilino}methyl)phenoxy]propyl}-3,4,5-trimethoxy-N-methylbenzamide [Example 989]”, the IC50 was over 500 nM. Same read-out and setting: the same measure for “N-{3-[2-({[(4-chlorophenyl)sulfonyl]-2,5-difluoroanilino}methyl)phenoxy]propyl}-3,4-dimethoxy-N-methylbenzamide [Example 960]”: over 500 nM. On to “N-{3-[2-({[(4-chlorophenyl)sulfonyl]-2,5-difluoroanilino}methyl)phenoxy]propyl}-3,5-difluoro-N-methylbenzamide [Example 1000]”, for which the half-inhibitory concentration (IC50) was over 500 nM. On to “N-{3-[2-({[(4-chlorophenyl)sulfonyl]-2,5-difluoroanilino}methyl)phenoxy]propyl}-3-fluoro-N-methylbenzamide [Example 862]”, for which the half-maximal inhibitory concentration (IC50) fell in the range of 100 to 500 nM. On the same count and under the same terms, the value for “N-{3-[2-({[(4-chlorophenyl)sulfonyl]-2,5-difluoroanilino}methyl)phenoxy]propyl}-3-methoxy-N-methylbenzamide [Example 814]” was 100 to 500 nM.
